Results on six compounds are retold here after ChEMBL document CHEMBL1149901, “Complex sesquiterpenoids with tyrosinase inhibitory activity from the leaves of Chloranthus tianmushanensis” (J Nat Prod, 2008).

Activity calls are given as the source filed them. No cut-off for these calls is given here.

What is called IC50 is the concentration that inhibits the measured activity by half. A high value points to a need for much substance.

One experiment concerns the target T1, Tyrosinase (Agaricus bisporus, UniProt O42713).
T1 sequence (O42713 whole entry): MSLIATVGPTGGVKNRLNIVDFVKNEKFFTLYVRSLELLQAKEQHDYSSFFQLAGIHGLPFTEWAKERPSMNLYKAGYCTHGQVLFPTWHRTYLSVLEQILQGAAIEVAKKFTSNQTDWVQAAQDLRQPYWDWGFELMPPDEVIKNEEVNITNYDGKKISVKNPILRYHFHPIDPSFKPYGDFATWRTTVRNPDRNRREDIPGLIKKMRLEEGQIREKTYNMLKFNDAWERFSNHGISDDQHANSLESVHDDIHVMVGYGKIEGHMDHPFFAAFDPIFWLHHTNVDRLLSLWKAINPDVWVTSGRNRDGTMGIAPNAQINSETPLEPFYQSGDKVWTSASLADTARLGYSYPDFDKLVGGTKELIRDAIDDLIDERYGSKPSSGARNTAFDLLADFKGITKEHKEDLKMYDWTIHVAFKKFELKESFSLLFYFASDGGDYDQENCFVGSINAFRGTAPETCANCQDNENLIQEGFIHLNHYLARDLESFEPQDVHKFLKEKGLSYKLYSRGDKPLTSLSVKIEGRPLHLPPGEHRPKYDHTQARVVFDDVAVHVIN
Description: Inhibition of Mushroom tyrosinase
Compound `CO[C@@]12OC(=O)C(C)=C1C1=C3[C@](C)([C@@H]4C[C@@H]4[C@@]3(O)C[C@@H]3[C@]14OC(=O)C1=C4C[C@H]4[C@](O)(COC(=O)/C(C)=C/COC(=O)CCC(=O)OC1)[C@H]1C[C@H]1[C@]34C)[C@H]2O` yielded an IC50 of 312 µM.

On to `CC1=C2C3=C4[C@](C)([C@@H]5C[C@@H]5[C@@]4(O)C[C@@H]4[C@]35OC(=O)C3=C5C[C@H]5[C@](O)(COC(=O)/C(C)=C/COC(=O)CCC(=O)OC3)[C@H]3C[C@H]3[C@]45C)[C@@H](O)[C@]2(O)OC1=O` [TIANMUSHANOL], for which the IC50 came out at 358 µM.

The next experiment deals with T2, Tyrosinase (Agaricus bisporus) (UniProt O42713).
T2 sequence (whole entry): T1 sequence (O42713 whole entry)
Description: Inhibition of Mushroom tyrosinase
For `CC1=C2C/C=C(\C)CC/C=C(\C)C[C@@H]2OC1=O`, the result was inactive.

With `C/C1=C\Cc2c(C)coc2C/C(C)=C/CC1`, the result was inactive.

Consider `C=C1CCC[C@]2(C)C[C@]3(O)OC(=O)C(C)=C3C[C@@H]12`, for which the outcome was inactive.

Consider `C=C1[C@H]2C[C@H]2[C@]2(C)C=C3OC(=O)C(C)=C3C[C@@H]12`, for which the outcome was inactive.
